Reference: patent US10150760B2, “Compounds for use in preparing heterocyclic triazole agonists of the APJ receptor” (AMGEN INC., priority 2016, dated 2018)

Molecular target: human APJ receptor (Homo sapiens (Human), UniProt P35414)
Experiment: [35S]GTPγS binding assay on membranes from CHO cells stably expressing human APJ receptor
Assay type: biochemical
Settings: read-out: Activity hAPJ SPA EC50 IP
Method in brief: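 Membranes from CHO cells stably expressing human APJ incubated with ligand, 0.2 nM [35S]GTPγS and WGA SPA beads in HEPES pH 7.5 with 5 mM MgCl2, 200 mM NaCl, 3 μM GDP, 90 min at RT. Nonspecific binding defined with 100 μM GTPγS; EC50 by non-linear regression.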

Sequence of human APJ receptor (P35414 whole entry): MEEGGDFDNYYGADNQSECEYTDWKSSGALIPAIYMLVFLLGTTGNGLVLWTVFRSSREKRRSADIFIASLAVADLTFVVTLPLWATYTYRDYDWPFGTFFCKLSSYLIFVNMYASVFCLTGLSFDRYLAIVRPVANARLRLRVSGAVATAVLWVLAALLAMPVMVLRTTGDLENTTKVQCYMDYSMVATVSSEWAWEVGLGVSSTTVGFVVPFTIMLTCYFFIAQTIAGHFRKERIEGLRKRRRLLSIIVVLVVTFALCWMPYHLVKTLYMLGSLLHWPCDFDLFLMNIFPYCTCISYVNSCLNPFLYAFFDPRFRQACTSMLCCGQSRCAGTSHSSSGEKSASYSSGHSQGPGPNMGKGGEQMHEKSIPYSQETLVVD

| Molecule | EC50 |
| --- | --- |
| (2S,3R)-3-(5-chloropyrimidin-2-yl)-N-(4-(2,6-dimethoxyphenyl)-5-((R)-1,1-dioxidotetrahydrothiophen-3-yl)-4H-1,2,4-triazol-3-yl)butane-2-sulfonamide or (2S,3R)-3-(5-chloropyrimidin-2-yl)-N-(4-(2,6-dimethoxyphenyl)-5-((S)-1,1-dioxidotetrahydrothiophen-3-yl)-4H-1,2,4-triazol-3-yl)butane-2-sulfonamide [Example 190.0] | 300 nM |
| (1R,2S)-N-(4-(2,6-dimethoxyphenyl)-5-((R)-1,4-dioxan-2-yl)-4H-1,2,4-triazol-3-yl)-1-ethoxy-1-(5-methylpyrimidin-2-yl)propane-2-sulfonamide or (1R,2S)-N-(4-(2,6-dimethoxyphenyl)-5-((S)-1,4-dioxan-2-yl)-4H-1,2,4-triazol-3-yl)-1-ethoxy-1-(5-methypyrimidin-2-yl)propane-2-sulfonamide [Example 204.0] | 100 nM |
| COc1cccc(OC)c1-n1c(NS(=O)(=O)[C@@H](C)[C@H](OC)c2ncc(Cl)cn2)nnc1C1CCOCC1 [Example 103.0, (1R,2S)-1-(5-chloropyrimidin-2-yl)-N-(4-(2,6-dimethoxyphenyl)-5-(tetrahydro-2H-pyran-4-yl)-4H-1,2,4-triazol-3-yl)-1-methoxypropane-2-sulfonamide] | 45 nM |
| COc1cccc(OC)c1-n1c(NS(=O)(=O)[C@@H](C)[C@@H](OC(C)C)c2ncc(Cl)cn2)nnc1[C@H]1CCOC1 (single isomer, unassigned) [Example 281.0, (1S,2S)-1-(5-chloropyrimidin-2-yl)-N-(4-(2,6-dimethoxyphenyl)-5-((R)-tetrahydrofuran-3-yl)-4H-1,2,4-triazol-3-yl)-1-isopropoxypropane-2-sulfonamide or (1S,25)-1-(5-chloropyrimidin-2-yl)-N-(4-(2,6-dimethoxyphenyl)-5-((S)-tetrahydrofuran-3-yl)-4H-1,2,4-triazol-3-yl)-1-isopropoxypropane-2-sulfonamide] | 0.11 nM |
| COCCn1c(NS(=O)(=O)[C@@H](C)[C@H](OC)c2ncc(Cl)cn2)nnc1[C@H]1CCOC1 (single isomer, unassigned) [Example 310.0, (1R,2S)-1-(5-chloropyrimidin-2-yl)-1-methoxy-N-(4-(2-methoxyethyl)-5-((R)-tetrahydrofuran-3-yl)-4H-1,2,4-triazol-3-yl)propane-2-sulfonamide or (1R,2S)-1-(5-chloropyrimidin-2-yl)-1-methoxy-N-(4-(2-methoxyethyl)-5-((S)-tetrahydrofuran-3-yl)-4H-1,2,4-triazol-3-yl)propane-2-sulfonamide] | 540 nM |
| COCC(COC)n1c(NS(=O)(=O)[C@@H](C)[C@H](OC)c2ncc(Cl)cn2)nnc1[C@@H]1COCCO1 (single isomer, unassigned) [Example 250.0, (1R,2S)-1-(5-chloro-2-pyrimidinyl)-N-(4-(1,3-dimethoxy-2-propanyl)-5-((2R)-1,4-dioxan-2-yl)-4H-1,2,4-triazol-3-yl)-1-methoxy-2-propanesulfonamide or (1R,2S)-1-(5-chloro-2-pyrimidinyl)-N-(4-(1,3-dimethoxy-2-propanyl)-5-((2S)-1,4-dioxan-2-yl)-4H-1,2,4-triazol-3-yl)-1-methoxy-2-propanesulfonamide] | 48 nM |
| COc1cnc([C@@H](C)[C@H](C)S(=O)(=O)Nc2nnc([C@@H]3COCCO3)n2-c2c(OC)ncnc2OC)nc1 (single isomer, unassigned) [Example 177.0, (2S,3R)-N-(4,-(4,6-dimethoxy-5-pyrimidinyl)-5-((2R)-1,4-dioxan-2-yl)-4H-1,2,4-triazol-3-yl)-3-(5-methoxy-2-pyrimidinyl)-2-butanesulfonamide or (2S,3R)-N-(4-(4,6-dimethoxy-5-pyrimidinyl)-5-((2S)-1,4-dioxan-2-yl)-4H-1,2,4-triazol-3-yl)-3-(5-methoxy-2-pyrimidinyl)-2-butanesulfonamide] | 95 nM |
| (1R,2S)-N-(4-(2,6-dimethoxyphenyl)-5-((S)-3-oxoisoindolin-1-yl)-4H-1,2,4-triazol-3-yl)-1-methoxy-1-(5-methylpyrimidin-2-yl)propane-2-sulfonamide or (1R,2S)-N-(4-(2,6-dimethoxyphenyl)-5-((R)-3-oxoisoindolin-1-yl)-4H-1,2,4-triazol-3-yl)-1-methoxy-1-(5-methylpyrimidin-2-yl)propane-2-sulfonamide [Example 237.0] | 590 nM |
| (1S,2S)-N-(4-(1,3-dimethoxy-2-propanyl)-5-((2R,5R)-5-methyltetrahydro-2-furanyl)-4H-1,2,4-triazol-3-yl)-1-(5-fluoro-2-pyrimidinyl)-1-(2-propanyloxy)-2-propanesulfonamide or (1S,2S)-N-(4-(1,3-dimethoxy-2-propanyl)-5-((2S,5S)-5-methyltetrahydro-2-furanyl)-4H-1,2,4-triazol-3-yl)-1-(5-fluoro-2-pyrimidinyl)-1-(2-propanyloxy)-2-propanesulfonamide [Example 361.0] | 10 nM |
| COc1cccc(OC)c1-n1c(NS(=O)(=O)[C@@H](C)[C@H](OC)c2ncc(Cl)cn2)nnc1[C@H]1CCC(=O)N1C (single isomer, unassigned) [Example 405.0, (1R,2S)-1-(5-chloropyrimidin-2-yl)-N-(4-(2,6-dimethoxyphenyl)-5-((R)-1-methyl-5-oxopyrrolidin-2-yl)-4H-1,2,4-triazol-3-yl)-1-methoxypropane-2-sulfonamide or (1R,2S)-1-(5-chloropyrimidin-2-yl)-N-(4-(2,6-dimethoxyphenyl)-5-((S)-1-methyl-5-oxopyrrolidin-2-yl)-4H-1,2,4-triazol-3-yl)-1-methoxypropane-2-sulfonamide] | 1720 nM |
| COc1cccc(OC)c1-n1c(NS(=O)(=O)[C@@H](C)[C@H](C)c2ncc(C#N)cn2)nnc1[C@H]1CCOC1 (single isomer, unassigned) [Example 173.0, (2S,3R)-3-(5-cyano-2-pyrimidin-yl)-N-(4-(2,6-dimethoxyphenyl)-5-((3R)-tetrahydro-3-furanyl)-4H-1,2,4-triazol-3-yl)-2-butanesulfonamide or (2S,3R)-3-(5-cyano-2-pyrimidinyl)-N-(4-(2,6-dimethoxyphenyl)-5-((3S)-tetrahydro-3-furanyl)-4H-1,2,4-triazol-3-yl)-2-butanesulfonamide] | 130 nM |
| COc1cccc(OC)c1-n1c(NS(=O)(=O)[C@@H](C)[C@H](C)c2ncc(C)cn2)nnc1[C@@H]1CCO[C@@H]1C (single isomer, unassigned) [Example 123.0, (2S,3R)-N-(4-(2,6-dimethoxyphenyl)-5-((2R,3S)-2-methyltetrahydrofuran-3-yl)-4H-1,2,4-triazol-3-yl)-3-(5-methylpyrimidin-2-yl)butane-2-sulfonamide or (2S,3R)-N-(4-(2,6-dimethoxyphenyl)-5-((2S,3R)-2-methyltetrahydrofuran-3-yl)-4H-1,2,4-triazol-3-yl)-3-(5-methylpyrimidin-2-yl)butane-2-sulfonamide] | 700 nM |
